Laboratory results reported in EP4678638A1, “NEW E3 UBIQUITIN LIGASE LIGAND, PROTEIN DEGRADATION AGENT AND USE THEREOF” (priority 2023, dated 2024).

Tests used:
Assay type in all cases: cell-based
Details in all cases: Table D16
IKZF1 = biological target: T1, IKZF1 (Homo sapiens, UniProt Q13422+Q96SW2); assay: Western blot degradation of IKZF1 (hPBMC)
T1 construct: evaluate the effects of the compounds of the present disclosure on the expression of target proteins in cells; endogenous in cells; host or cells: hPBMC
Method: (§1) Conventional Western blot assay was performed to evaluate the effects of the compounds of the present disclosure on the expression of target proteins in cells.
(§2) (1) Cell Seeding and Protein Harvesting: The selected cells were processed according to the cell seeding procedure and protein harvesting procedure in Table III-2. Table III-2 Cell Seeding and Protein Harvesting Procedures
(§3) (2) To the collected supernatant, 5X SDS sample loading buffer was added, followed by denaturation at 95°C for 5 minutes. The denatured samples were then separated by SDS-PAGE electrophoresis on a polyacrylamide gel. Proteins were transferred to a nitrocellulose membrane (0.45 µm NC membrane), blocked with blocking buffer at room temperature for 1 hour, and subjected to antibody incubation and development procedures according to the antibody manufacturer's instructions (Cell Signaling Technology).
(§4) Half-Maximal Degradation Concentration value (the drug concentration required for degrading proteins by 50%, abbreviated as DC50) reads method: comparing the grayscale values of Western blot bands from drug-treated samples with those from blank DMSO-treated controls, and identifying the drug concentration range at which the grayscale value is half that of the DMSO-treated control bands.
(§5) DC50 values can be calculated using ImageJ software to measure grayscale values of Western blot bands from drug-treated samples. The concentration-response curve is fitted to estimate the drug concentration corresponding to half the grayscale value.
(§6) Target protein remaining (%) refers to the percentage of target protein remaining in hPBMC cells after treatment with protein degrader compounds.
(§7) Calculation method for target protein remaining (%): Use ImageJ software to measure grayscale values of Western blot bands from drug (protein degrader)-treated samples. The grayscale value of drug-treated bands is divided by that of internal control protein bands, and the resulting quotient is normalized to obtain the relative percentage of remaining target protein after protein degrader treatment.
(§8) Target protein degradation rate (%) = 100% - target protein remaining (%).

IKZF2 = biological target: T2, IKZF2 (Homo sapiens, UniProt Q96SW2+Q9UKS7); assay: Western blot degradation of IKZF2 (hPBMC)
T2 construct: evaluate the effects of the compounds of the present disclosure on the expression of target proteins in cells; endogenous in cells; host or cells: hPBMC
Method: as §1, §2, §3, §4, §5, §6, §7, §8

WEE1 = biological target: T3, WEE1 (Homo sapiens, UniProt P30291+Q96SW2); assay: Western blot degradation of WEE1 (hPBMC)
T3 construct: evaluate the effects of the compounds of the present disclosure on the expression of target proteins in cells; endogenous in cells; host or cells: hPBMC
Method: as §1, §2, §3, §4, §5, §6, §7, §8

IKZF3 = biological target: T4, IKZF3 (Homo sapiens, UniProt Q96SW2+Q9UKT9); assay: Western blot degradation of IKZF3 (hPBMC)
T4 construct: evaluate the effects of the compounds of the present disclosure on the expression of target proteins in cells; endogenous in cells; host or cells: hPBMC
Method: as §1, §2, §3, §4, §5, §6, §7, §8

GSPT1 = biological target: T5, GSPT1 (Homo sapiens, UniProt P15170+Q96SW2); assay: Western blot degradation of GSPT1 (hPBMC)
T5 construct: evaluate the effects of the compounds of the present disclosure on the expression of target proteins in cells; endogenous in cells; host or cells: hPBMC
Method: as §1, §2, §3, §4, §5, §6, §7, §8

CK1a = biological target: T6, CK1a (Homo sapiens, UniProt P48729+Q96SW2); assay: Western blot degradation of CK1a (hPBMC)
T6 construct: evaluate the effects of the compounds of the present disclosure on the expression of target proteins in cells; endogenous in cells; host or cells: hPBMC
Method: as §1, §2, §3, §4, §5, §6, §7, §8

T3 sequence (P30291 whole entry): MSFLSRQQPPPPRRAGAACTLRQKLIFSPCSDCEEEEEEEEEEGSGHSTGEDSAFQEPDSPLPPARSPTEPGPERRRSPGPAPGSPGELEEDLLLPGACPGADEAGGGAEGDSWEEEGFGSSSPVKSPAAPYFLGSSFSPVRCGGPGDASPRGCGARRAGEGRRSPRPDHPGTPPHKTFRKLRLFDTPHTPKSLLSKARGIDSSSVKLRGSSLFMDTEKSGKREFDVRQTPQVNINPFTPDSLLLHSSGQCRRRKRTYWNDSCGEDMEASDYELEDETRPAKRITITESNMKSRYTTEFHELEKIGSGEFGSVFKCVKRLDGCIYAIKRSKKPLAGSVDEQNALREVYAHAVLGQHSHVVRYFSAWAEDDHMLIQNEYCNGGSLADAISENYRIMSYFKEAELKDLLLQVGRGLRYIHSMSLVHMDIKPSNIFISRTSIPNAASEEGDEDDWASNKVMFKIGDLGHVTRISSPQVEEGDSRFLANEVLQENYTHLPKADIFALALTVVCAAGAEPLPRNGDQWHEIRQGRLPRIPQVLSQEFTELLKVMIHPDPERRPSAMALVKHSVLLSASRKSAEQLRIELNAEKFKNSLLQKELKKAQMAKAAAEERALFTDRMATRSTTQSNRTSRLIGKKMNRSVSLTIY
T3 sequence (Q96SW2 whole entry): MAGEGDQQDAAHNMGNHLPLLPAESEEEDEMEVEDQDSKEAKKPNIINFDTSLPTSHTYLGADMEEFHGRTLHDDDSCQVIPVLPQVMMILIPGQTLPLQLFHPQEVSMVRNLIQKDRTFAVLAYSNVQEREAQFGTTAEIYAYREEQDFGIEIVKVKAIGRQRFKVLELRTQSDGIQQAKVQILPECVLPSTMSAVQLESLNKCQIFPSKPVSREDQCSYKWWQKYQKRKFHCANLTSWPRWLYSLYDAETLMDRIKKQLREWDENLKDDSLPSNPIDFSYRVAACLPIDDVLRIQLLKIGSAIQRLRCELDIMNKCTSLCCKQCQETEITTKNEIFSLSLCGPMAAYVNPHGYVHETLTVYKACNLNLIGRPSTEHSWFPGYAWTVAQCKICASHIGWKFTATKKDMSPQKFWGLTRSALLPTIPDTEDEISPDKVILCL
T3 sequence (Q16531 whole entry partner): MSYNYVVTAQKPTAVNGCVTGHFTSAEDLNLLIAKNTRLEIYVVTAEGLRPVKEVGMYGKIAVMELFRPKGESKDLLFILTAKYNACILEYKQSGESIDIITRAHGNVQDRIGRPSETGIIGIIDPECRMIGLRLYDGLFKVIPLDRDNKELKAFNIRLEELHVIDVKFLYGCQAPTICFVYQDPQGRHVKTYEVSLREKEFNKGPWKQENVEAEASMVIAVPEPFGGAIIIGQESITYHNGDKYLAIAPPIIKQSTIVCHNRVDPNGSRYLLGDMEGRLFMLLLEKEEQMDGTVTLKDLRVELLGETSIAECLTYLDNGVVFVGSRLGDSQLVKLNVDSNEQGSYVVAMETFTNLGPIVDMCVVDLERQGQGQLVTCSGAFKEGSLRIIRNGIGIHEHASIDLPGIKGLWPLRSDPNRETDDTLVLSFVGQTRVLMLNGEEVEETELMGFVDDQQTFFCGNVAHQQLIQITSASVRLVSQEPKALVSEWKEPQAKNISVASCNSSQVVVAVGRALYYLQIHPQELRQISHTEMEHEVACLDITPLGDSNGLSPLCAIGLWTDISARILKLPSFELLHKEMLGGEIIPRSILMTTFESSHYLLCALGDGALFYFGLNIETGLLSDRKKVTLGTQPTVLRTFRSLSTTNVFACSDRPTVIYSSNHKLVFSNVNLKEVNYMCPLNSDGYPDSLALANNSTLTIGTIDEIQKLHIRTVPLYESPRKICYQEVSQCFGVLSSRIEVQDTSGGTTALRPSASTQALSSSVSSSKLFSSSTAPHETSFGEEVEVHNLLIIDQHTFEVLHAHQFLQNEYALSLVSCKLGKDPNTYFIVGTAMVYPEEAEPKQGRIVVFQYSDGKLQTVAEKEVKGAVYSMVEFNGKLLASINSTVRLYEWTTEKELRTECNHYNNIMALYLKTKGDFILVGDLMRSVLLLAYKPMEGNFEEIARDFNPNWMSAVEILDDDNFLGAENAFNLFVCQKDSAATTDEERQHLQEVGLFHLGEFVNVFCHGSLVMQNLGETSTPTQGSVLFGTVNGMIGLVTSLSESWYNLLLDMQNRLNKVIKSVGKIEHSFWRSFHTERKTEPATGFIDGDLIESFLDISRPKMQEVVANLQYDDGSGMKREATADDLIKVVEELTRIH
T1 sequence (Q13422 whole entry): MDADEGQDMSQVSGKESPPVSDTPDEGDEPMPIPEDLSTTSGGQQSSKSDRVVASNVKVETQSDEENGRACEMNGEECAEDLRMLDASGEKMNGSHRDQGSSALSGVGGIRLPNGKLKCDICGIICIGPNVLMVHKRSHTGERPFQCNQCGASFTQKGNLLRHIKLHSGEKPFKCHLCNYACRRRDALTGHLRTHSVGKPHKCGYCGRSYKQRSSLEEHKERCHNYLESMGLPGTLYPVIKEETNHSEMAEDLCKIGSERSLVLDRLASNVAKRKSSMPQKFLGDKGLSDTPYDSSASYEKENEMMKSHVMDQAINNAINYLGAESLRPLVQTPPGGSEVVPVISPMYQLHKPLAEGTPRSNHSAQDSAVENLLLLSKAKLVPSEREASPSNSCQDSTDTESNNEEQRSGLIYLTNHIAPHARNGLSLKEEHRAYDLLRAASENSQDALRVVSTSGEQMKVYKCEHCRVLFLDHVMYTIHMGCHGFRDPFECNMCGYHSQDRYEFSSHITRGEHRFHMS
T1 sequence (Q96SW2 whole entry): as the sequence (Q96SW2 whole entry) above
T1 sequence (Q16531 whole entry partner): as the sequence (Q16531 whole entry partner) above
T4 sequence (Q9UKT9 whole entry): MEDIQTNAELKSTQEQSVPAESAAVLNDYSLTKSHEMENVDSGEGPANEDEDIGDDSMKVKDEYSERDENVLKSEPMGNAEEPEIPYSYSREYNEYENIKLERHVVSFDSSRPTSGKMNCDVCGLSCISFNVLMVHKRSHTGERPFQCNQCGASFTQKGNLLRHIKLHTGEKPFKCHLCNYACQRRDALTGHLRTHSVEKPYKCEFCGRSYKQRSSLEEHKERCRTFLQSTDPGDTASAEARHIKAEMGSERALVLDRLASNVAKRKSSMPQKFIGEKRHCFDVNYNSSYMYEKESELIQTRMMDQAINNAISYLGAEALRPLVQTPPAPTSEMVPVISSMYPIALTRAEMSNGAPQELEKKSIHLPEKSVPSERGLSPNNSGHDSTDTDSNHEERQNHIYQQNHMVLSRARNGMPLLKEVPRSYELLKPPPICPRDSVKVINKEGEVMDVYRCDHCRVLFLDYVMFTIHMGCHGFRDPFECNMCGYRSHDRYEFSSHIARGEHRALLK
T4 sequence (Q96SW2 whole entry): as the sequence (Q96SW2 whole entry) above
T4 sequence (Q16531 whole entry partner): as the sequence (Q16531 whole entry partner) above
T2 sequence (Q9UKS7 whole entry): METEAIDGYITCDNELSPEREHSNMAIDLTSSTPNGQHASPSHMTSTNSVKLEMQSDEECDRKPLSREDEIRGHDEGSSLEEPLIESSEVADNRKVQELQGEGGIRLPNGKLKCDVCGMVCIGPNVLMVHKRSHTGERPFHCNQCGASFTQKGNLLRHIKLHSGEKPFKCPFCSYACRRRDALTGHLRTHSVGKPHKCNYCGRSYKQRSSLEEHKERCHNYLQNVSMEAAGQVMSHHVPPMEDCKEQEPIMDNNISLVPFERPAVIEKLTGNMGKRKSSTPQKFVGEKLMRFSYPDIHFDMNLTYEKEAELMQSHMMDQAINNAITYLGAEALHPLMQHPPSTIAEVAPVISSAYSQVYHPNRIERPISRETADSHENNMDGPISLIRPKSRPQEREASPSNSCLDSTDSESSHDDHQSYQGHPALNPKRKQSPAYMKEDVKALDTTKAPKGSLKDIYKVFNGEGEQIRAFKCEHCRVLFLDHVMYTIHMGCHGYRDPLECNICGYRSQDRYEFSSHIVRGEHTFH
T2 sequence (Q96SW2 whole entry): as the sequence (Q96SW2 whole entry) above
T2 sequence (Q16531 whole entry partner): as the sequence (Q16531 whole entry partner) above
T5 sequence (P15170 whole entry): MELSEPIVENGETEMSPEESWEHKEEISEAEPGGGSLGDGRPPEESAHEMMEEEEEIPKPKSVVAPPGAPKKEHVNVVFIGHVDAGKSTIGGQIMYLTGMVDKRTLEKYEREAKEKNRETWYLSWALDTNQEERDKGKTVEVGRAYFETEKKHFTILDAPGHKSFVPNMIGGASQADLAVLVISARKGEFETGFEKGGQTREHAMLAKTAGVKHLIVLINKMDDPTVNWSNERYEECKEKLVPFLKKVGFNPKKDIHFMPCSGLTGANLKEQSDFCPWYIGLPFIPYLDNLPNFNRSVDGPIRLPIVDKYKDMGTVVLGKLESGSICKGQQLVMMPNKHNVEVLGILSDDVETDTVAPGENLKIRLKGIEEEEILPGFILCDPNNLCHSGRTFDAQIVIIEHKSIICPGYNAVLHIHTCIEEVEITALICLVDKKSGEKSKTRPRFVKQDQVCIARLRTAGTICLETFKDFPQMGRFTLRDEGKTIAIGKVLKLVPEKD
T5 sequence (Q96SW2 whole entry): as the sequence (Q96SW2 whole entry) above
T5 sequence (Q16531 whole entry partner): as the sequence (Q16531 whole entry partner) above

Compound: CC(C)(C)[Si](C)(C)OCc1ccncc1NC1CCC(=O)NC1=O (stereo not drawn) [GT-07638, 3-((4-(((tert-Butyldimethylsilyl)oxy)methyl)pyridin-3-yl)amino)piperidine-2,6-dione]
- Degradation of substrate protein IKZF1 (substrate protein remaining %) (IKZF1): B (B is defined as substrate protein remaining % > 80%)
- Degradation of substrate protein IKZF2 (substrate protein remaining %) (IKZF2): A (A is defined as 0% ≤ substrate protein remaining % ≤ 80%)
- Degradation of substrate protein WEE1 (substrate protein remaining %) (WEE1): A (A is defined as 0% ≤ substrate protein remaining % ≤ 80%)
- Degradation of substrate protein IKZF3 (substrate protein remaining %) (IKZF3): A (A is defined as 0% ≤ substrate protein remaining % ≤ 80%)
- Degradation of substrate protein GSPT1 (substrate protein remaining %) (GSPT1): A (A is defined as 0% ≤ substrate protein remaining % ≤ 80%)
- Degradation of substrate protein CKla (substrate protein remaining %) (CK1a): B (B is defined as substrate protein remaining % > 80%)

Compound: O=C1CCN(c2cncc(CCl)n2)C(=O)N1 [GT-07728, 1-(6-(Chloromethyl)pyrazin-2-yl)dihydropyrimidine-2,4(1H,3H)-dione]
- Degradation of substrate protein IKZF1 (substrate protein remaining %) (IKZF1): A (A is defined as 0% ≤ substrate protein remaining % ≤ 80%)
- Degradation of substrate protein IKZF2 (substrate protein remaining %) (IKZF2): A (A is defined as 0% ≤ substrate protein remaining % ≤ 80%)
- Degradation of substrate protein WEE1 (substrate protein remaining %) (WEE1): A (A is defined as 0% ≤ substrate protein remaining % ≤ 80%)
- Degradation of substrate protein IKZF3 (substrate protein remaining %) (IKZF3): A (A is defined as 0% ≤ substrate protein remaining % ≤ 80%)
- Degradation of substrate protein GSPT1 (substrate protein remaining %) (GSPT1): B (B is defined as substrate protein remaining % > 80%)
- Degradation of substrate protein CKla (substrate protein remaining %) (CK1a): B (B is defined as substrate protein remaining % > 80%)

Compound: O=C1CCC(Nc2ncccc2CO)C(=O)N1 (stereo not drawn) [GT-07197, 3-((3-(Hydroxymethyl)pyridin-2-yl)amino)piperidine-2,6-dione]
- Degradation of substrate protein IKZF1 (substrate protein remaining %) (IKZF1): B (B is defined as substrate protein remaining % > 80%)
- Degradation of substrate protein IKZF2 (substrate protein remaining %) (IKZF2): B (B is defined as substrate protein remaining % > 80%)
- Degradation of substrate protein WEE1 (substrate protein remaining %) (WEE1): B (B is defined as substrate protein remaining % > 80%)
- Degradation of substrate protein IKZF3 (substrate protein remaining %) (IKZF3): B (B is defined as substrate protein remaining % > 80%)
- Degradation of substrate protein GSPT1 (substrate protein remaining %) (GSPT1): A (A is defined as 0% ≤ substrate protein remaining % ≤ 80%)
- Degradation of substrate protein CKla (substrate protein remaining %) (CK1a): A (A is defined as 0% ≤ substrate protein remaining % ≤ 80%)

Compound: CC(C)(C)[Si](C)(C)OCc1cc(NC2CCC(=O)NC2=O)ncc1F (stereo not drawn) [GT-07724, 3-((4-(((tertbutyldimethylsilyl)oxy)methyl)-5-fluoropyridin-2-yl)amino)piperidine-2,6-dione]
- Degradation of substrate protein IKZF1 (substrate protein remaining %) (IKZF1): A (A is defined as 0% ≤ substrate protein remaining % ≤ 80%)
- Degradation of substrate protein IKZF2 (substrate protein remaining %) (IKZF2): A (A is defined as 0% ≤ substrate protein remaining % ≤ 80%)
- Degradation of substrate protein WEE1 (substrate protein remaining %) (WEE1): A (A is defined as 0% ≤ substrate protein remaining % ≤ 80%)
- Degradation of substrate protein IKZF3 (substrate protein remaining %) (IKZF3): A (A is defined as 0% ≤ substrate protein remaining % ≤ 80%)
- Degradation of substrate protein GSPT1 (substrate protein remaining %) (GSPT1): A (A is defined as 0% ≤ substrate protein remaining % ≤ 80%)
- Degradation of substrate protein CKla (substrate protein remaining %) (CK1a): B (B is defined as substrate protein remaining % > 80%)

Compound: O=C1CCC(Nc2cnccc2CO)C(=O)N1 (stereo not drawn) [GT-07559, 3-((4-(Hydroxymethyl)pyridin-3-yl)amino)piperidine-2,6-dione]
- Degradation of substrate protein IKZF1 (substrate protein remaining %) (IKZF1): A (A is defined as 0% ≤ substrate protein remaining % ≤ 80%)
- Degradation of substrate protein IKZF2 (substrate protein remaining %) (IKZF2): A (A is defined as 0% ≤ substrate protein remaining % ≤ 80%)
- Degradation of substrate protein WEE1 (substrate protein remaining %) (WEE1): A (A is defined as 0% ≤ substrate protein remaining % ≤ 80%)
- Degradation of substrate protein IKZF3 (substrate protein remaining %) (IKZF3): A (A is defined as 0% ≤ substrate protein remaining % ≤ 80%)
- Degradation of substrate protein GSPT1 (substrate protein remaining %) (GSPT1): A (A is defined as 0% ≤ substrate protein remaining % ≤ 80%)
- Degradation of substrate protein CKla (substrate protein remaining %) (CK1a): A (A is defined as 0% ≤ substrate protein remaining % ≤ 80%)

Compound: O=C1CCC(c2ccc(CO)nc2F)C(=O)N1 (stereo not drawn) [GT-07558, 3-(2-Fluoro-6-(hydroxymethyl)pyridin-3-yl)piperidine-2,6-dione]
- Degradation of substrate protein IKZF1 (substrate protein remaining %) (IKZF1): A (A is defined as 0% ≤ substrate protein remaining % ≤ 80%)
- Degradation of substrate protein IKZF2 (substrate protein remaining %) (IKZF2): B (B is defined as substrate protein remaining % > 80%)
- Degradation of substrate protein WEE1 (substrate protein remaining %) (WEE1): A (A is defined as 0% ≤ substrate protein remaining % ≤ 80%)
- Degradation of substrate protein IKZF3 (substrate protein remaining %) (IKZF3): B (B is defined as substrate protein remaining % > 80%)
- Degradation of substrate protein GSPT1 (substrate protein remaining %) (GSPT1): B (B is defined as substrate protein remaining % > 80%)
- Degradation of substrate protein CKla (substrate protein remaining %) (CK1a): A (A is defined as 0% ≤ substrate protein remaining % ≤ 80%)

Compound: CC(C)(C)[Si](C)(C)OCc1cncc(NC2CCC(=O)NC2=O)c1 (stereo not drawn) [GT-07449, 3-((5-(((tert-Butyldimethylsilyl)oxy)methyl)pyridin-3-yl)amino)piperidine-2,6-dione]
- Degradation of substrate protein IKZF1 (substrate protein remaining %) (IKZF1): B (B is defined as substrate protein remaining % > 80%)
- Degradation of substrate protein IKZF2 (substrate protein remaining %) (IKZF2): A (A is defined as 0% ≤ substrate protein remaining % ≤ 80%)
- Degradation of substrate protein WEE1 (substrate protein remaining %) (WEE1): B (B is defined as substrate protein remaining % > 80%)
- Degradation of substrate protein IKZF3 (substrate protein remaining %) (IKZF3): B (B is defined as substrate protein remaining % > 80%)
- Degradation of substrate protein GSPT1 (substrate protein remaining %) (GSPT1): B (B is defined as substrate protein remaining % > 80%)
- Degradation of substrate protein CKla (substrate protein remaining %) (CK1a): B (B is defined as substrate protein remaining % > 80%)

Compound: O=C1CCC(c2cc(CO)c(F)cn2)C(=O)N1 (stereo not drawn) [GT-07444, 3-(5-Fluoro-4-(hydroxymethyl)pyridin-2-yl)piperidine-2,6-dione]
- Degradation of substrate protein IKZF1 (substrate protein remaining %) (IKZF1): B (B is defined as substrate protein remaining % > 80%)
- Degradation of substrate protein IKZF2 (substrate protein remaining %) (IKZF2): A (A is defined as 0% ≤ substrate protein remaining % ≤ 80%)
- Degradation of substrate protein WEE1 (substrate protein remaining %) (WEE1): B (B is defined as substrate protein remaining % > 80%)
- Degradation of substrate protein IKZF3 (substrate protein remaining %) (IKZF3): A (A is defined as 0% ≤ substrate protein remaining % ≤ 80%)
- Degradation of substrate protein GSPT1 (substrate protein remaining %) (GSPT1): B (B is defined as substrate protein remaining % > 80%)
- Degradation of substrate protein CKla (substrate protein remaining %) (CK1a): B (B is defined as substrate protein remaining % > 80%)

Compound: CC(C)(C)[Si](C)(C)OCc1cnc(NC2CCC(=O)NC2=O)nc1 (stereo not drawn) [GT-07808, 3-((5-(((tert-Butyldimethylsilyl)oxy)methyl)pyrimidin-2-yl)amino)piperidine-2,6-dione]
- Degradation of substrate protein IKZF1 (substrate protein remaining %) (IKZF1): A (A is defined as 0% ≤ substrate protein remaining % ≤ 80%)
- Degradation of substrate protein IKZF2 (substrate protein remaining %) (IKZF2): A (A is defined as 0% ≤ substrate protein remaining % ≤ 80%)
- Degradation of substrate protein WEE1 (substrate protein remaining %) (WEE1): A (A is defined as 0% ≤ substrate protein remaining % ≤ 80%)
- Degradation of substrate protein IKZF3 (substrate protein remaining %) (IKZF3): A (A is defined as 0% ≤ substrate protein remaining % ≤ 80%)
- Degradation of substrate protein GSPT1 (substrate protein remaining %) (GSPT1): B (B is defined as substrate protein remaining % > 80%)
- Degradation of substrate protein CKla (substrate protein remaining %) (CK1a): B (B is defined as substrate protein remaining % > 80%)
